# Assay results taken from patent US8968663B2, “Monitoring membrane-bound proteins” (University of Utah Research Foundation, priority 2011, dated 2015).
# Key:
# [1] = test system: ShakerB-IR K^+ ion channel; assay: Two-electrode voltage clamp of ShakerB-IR expressing Xenopus oocytes with Cu^2+ applied as ion channel blocker; type: cell-based; conditions: ~120 μM Cu^2+ pipetted above the cell, FIG. 10
# Method: Complementary deoxyribonucleic acid (cDNA) for the Shaker ion-channel variant ShakerB-IR (inactivation removed) was transformed in E. coli and linearized using the restriction enzyme, Kpn-1. cRNA was transcribed from linearized DNA, and 32 nL/cell of the transcribed RNA was injected into Xenopus oocytes. Recordings were done 24-48 hours after injection to allow time for protein expression. Currents were measured using two-microelectrode voltage clamp to verify ShakerB-IR ion channel expression. Oocytes were stored in Superbarths Oocyte media (88 mM NaCl, 1 mM KCl, 0.41 mM CaCl2, 0.33 mM Ca(NO3)2, 1 mM MgSO4, 2.4 mM NaHCO3, 10 mM HEPES, 1 mM pyruvate and 50 μg/ml gentamicin, titrated using NaOH to a pH of 7.4) at 17° Celsius (C.). Oocytes were also bathed in this media during RF recording.
# (§1) Oocytes were positioned into a recording chamber consisting of an RF belt electrode surrounding the meridian of the cell and a ground electrode located in the oocyte media above an axial pole of the cell. Two glass micropipettes (1-3 MΩ access resistance) filled with 3M KCL were carefully guided into the oocyte using an upright microscope (Zeiss AxioTech). One micropipette was attached to a voltage-measuring headstage (HS-2Ax1 LU, Molecular Devices, Sunnyvale, Calif.) and the second micropipette was attached to a current-injecting headstage (HS-2Ax10MGU, Molecular Devices, Sunnyvale, Calif.). […]
# [2] = test system: ShakerB-IR K^+ ion channel; assay: RF (500 kHz) impedance interrogation of ShakerB-IR expressing Xenopus oocytes under voltage clamp; type: cell-based; conditions: ~120 μM Cu^2+, 500 kHz RF signal, FIG. 10
# Method: Complementary deoxyribonucleic acid (cDNA) for the Shaker ion-channel variant ShakerB-IR (inactivation removed) was transformed in E. coli and linearized using the restriction enzyme, Kpn-1. cRNA was transcribed from linearized DNA, and 32 nL/cell of the transcribed RNA was injected into Xenopus oocytes. Recordings were done 24-48 hours after injection to allow time for protein expression. Currents were measured using two-microelectrode voltage clamp to verify ShakerB-IR ion channel expression. […]
# (§2) RF voltage measurements were sampled through a head-stage voltage-follower operational amplifier (OPA356, Texas Instruments, Dallas, Tex.). The RF signal was high pass filtered (100 kHz, 48 DB/oct Bessel HPF; SIM965, Stanford Research Systems, Sunnyvale, Calif.) and detected by a lock-in amplification (0 integration time, SR844, Stanford Research Systems, Sunnyvale, Calif.). The quadrature outputs on the lock-in amplifier detected changes on the order of 10 microvolts, and time delays caused by the lock-in amplifier and HPF were accounted for prior to data analysis. TEVC data (command voltage, sensed voltage, measured current) and RF data (quadrature outputs from the lock-in amplifier) were sampled every 20 μs using a 16 bit A-D converter (ITC-18, HEKA Inst. Bellmore, N.Y.). […]
# [3] = test system: control oocytes (endogenous protein response); assay: RF (500 kHz) impedance interrogation of control Xenopus oocytes under voltage clamp; type: cell-based; conditions: ~120 μM Cu^2+, 500 kHz RF signal, FIG. 10
# Text: as §1, §2
# [4] = test system: ShakerB-IR K^+ ion channel; conditions: extracellular application; stated as known; cited from earlier work
structure (smiles),measurement,setting,value
[Cu+2] [Cu^2+],effect on ShakerB-IR K^+ current,[1],blocked the ShakerB-IR K^+ current
same,effect on charge displacement within the RF electric field (voltage-dependent RF impedance),[2],increased charge displacement within the RF electric field
same,effect on charge displacement within the RF electric field in control cells,[3],not observed to the same extent in control cells
same,known effect of extracellular Cu^2+ on K^+ conductance,[4],shift the K^+ conductance to more depolarized levels
